The record followed here is US20240368157A1, “FORMS AND COMPOSITIONS OF A JAK2 INHIBITOR” (Ajax Therapeutics, Inc., priority 2023, published 2024).

Molecules are shown by their SMILES. ≈ marks a conversion by molar mass, not a printed value.

One series can be described thus: Kinetic Solubility Assay. The series is classed as physicochemical. The following applies: aqueous buffer, kinetic from dmso stock, PBS, RT, pH of the reported value not stated (method: pH 4.0 and pH 7.4). As to the method: Stock solutions of test compounds are prepared in DMSO at the concentration of 10 mM, and a stock solution of control compound is prepared in DMSO at the concentration of 30 mM. Diclofenac is used as positive control in the assay. 30 μL stock solution of each compound is placed into their a 96-well rack, followed by adding 970 μL of PBS at pH 4.0 and pH 7.4 into each vial of the cap-less solubility sample plate. This study is performed in duplicate. One stir stick is added to each vial and then vials are sealed using a molded PTDE/SIL 96-Well Plate Cover. The solubility sample plate is transferred to the Thermomixer comfort plate shaker and incubated at RT for 2 hours with shaking at 1100 rpm. After 2 hours incubation, stir sticks are removed using a big magnet and all samples from the solubility sample plate are transferred into the filter plate. All the samples are filtered by vacuum manifold. The filtered samples are diluted with methanol. Samples are analyzed by LC-MS/MS and quantified against a standard of known concentration in DMSO using LC coupled with Mass spectral peak identification and quantitation. The solubility values of the test compounds are calculated as follows, wherein INJ VOL is injection volume, DF is dilution factor, and STD is standard: […]

A further series deals with T1, TYK2 (Homo sapiens, UniProt P29597).
T1 construct: made in house; host or cells: E. coli (BL21-derived, T7 phage display) or HEK-293
Nature of the series: JAK Family Selectivity Assay (TYK2 vs JAK2 binding affinity). The following applies: selectivity over JAK2. As to the method: Provided compounds are evaluated for selectivity by comparing their JAK2 binding affinity (Kd) in the above JAK2 Binding Assay with their binding affinity (Kd) for one or more other kinases. Binding affinity for other kinases is determined as follows: Kinase-tagged T7 phage strains are prepared in an E. coli host derived from the BL21 strain. E. coli are grown to log-phase and infected with T7 phage and incubated with shaking at 32° C. until lysis. The lysates are centrifuged and filtered to remove cell debris. The remaining kinases are produced in HEK-293 cells and subsequently tagged with DNA for qPCR detection. Streptavidin-coated magnetic beads are treated with biotinylated small molecule ligands for 30 minutes at room temperature to generate affinity resins for kinase assays. The liganded beads are blocked with excess biotin and washed with blocking buffer (SeaBlock (Pierce), 1% BSA, 0.05% Tween 20, 1 mM DTT) to remove unbound ligand and to reduce non-specific binding. Binding reactions are assembled by combining kinases, liganded affinity beads, and test compounds in 1× binding buffer (20% SeaBlock, 0.17×PBS, 0.05% Tween 20, 6 mM DTT). Test compounds are prepared as 111× stocks in 100% DMSO. Kds are determined using an 11-point 3-fold compound dilution series with three DMSO control points. […] The kinase concentration in the eluates is measured by qPCR. […]

Series [1] in a line: Hepatocyte Stability Assay (human hepatocytes). The series is classed as in vitro ADME. Particulars: cryopreserved hepatocytes, read-out: Human Heps CLint. The method, then: (§1) 10 mM stock solutions of test compound and positive control are prepared in DMSO. Stock solutions are diluted to 100 μM by combining 198 μL of 50% acetonitrile/50% water and 2 μL of 10 mM stock solution. Verapamil is used as positive control in the assay. Vials of cryopreserved hepatocytes are thawed in a 37° C. water bath with gently shaking. The contents are poured into the 50 mL thawing medium conical tube. Vials are centrifuged at 100 g for 10 minutes at room temperature. Thawing medium is aspirated and hepatocytes are re-suspended with serum-free incubation medium to yield ˜1.5×10^6 cells/mL. Cell viability and density are counted using a Trypan Blue exclusion, and then cells are diluted with serum-free incubation medium to a working cell density of 0.5×10^6 viable cells/mL. A portion of the hepatocytes at 0.5×10^6 viable cells/mL are boiled for 5 min prior to adding to the plate as negative control to eliminate the enzymatic activity so that little or no substrate turnover should be observed. Aliquots of 198 μL hepatocytes are dispensed into each well of a 96-well non-coated plate. The plate is placed in the incubator for approximately 10 minutes. Aliquots of 2 μL of the 100 μM test compound and 2 μL positive control are added into respective wells of a non-coated 96-well plate to start the reaction. The final concentration of test compound is 1 μM. […]

A short description of series [2]: Hepatocyte Stability Assay (rat hepatocytes). The following applies: cryopreserved hepatocytes, read-out: Rat Heps CLint. Type of series: in vitro ADME. The method, then: as §1

T1 sequence (P29597 whole entry): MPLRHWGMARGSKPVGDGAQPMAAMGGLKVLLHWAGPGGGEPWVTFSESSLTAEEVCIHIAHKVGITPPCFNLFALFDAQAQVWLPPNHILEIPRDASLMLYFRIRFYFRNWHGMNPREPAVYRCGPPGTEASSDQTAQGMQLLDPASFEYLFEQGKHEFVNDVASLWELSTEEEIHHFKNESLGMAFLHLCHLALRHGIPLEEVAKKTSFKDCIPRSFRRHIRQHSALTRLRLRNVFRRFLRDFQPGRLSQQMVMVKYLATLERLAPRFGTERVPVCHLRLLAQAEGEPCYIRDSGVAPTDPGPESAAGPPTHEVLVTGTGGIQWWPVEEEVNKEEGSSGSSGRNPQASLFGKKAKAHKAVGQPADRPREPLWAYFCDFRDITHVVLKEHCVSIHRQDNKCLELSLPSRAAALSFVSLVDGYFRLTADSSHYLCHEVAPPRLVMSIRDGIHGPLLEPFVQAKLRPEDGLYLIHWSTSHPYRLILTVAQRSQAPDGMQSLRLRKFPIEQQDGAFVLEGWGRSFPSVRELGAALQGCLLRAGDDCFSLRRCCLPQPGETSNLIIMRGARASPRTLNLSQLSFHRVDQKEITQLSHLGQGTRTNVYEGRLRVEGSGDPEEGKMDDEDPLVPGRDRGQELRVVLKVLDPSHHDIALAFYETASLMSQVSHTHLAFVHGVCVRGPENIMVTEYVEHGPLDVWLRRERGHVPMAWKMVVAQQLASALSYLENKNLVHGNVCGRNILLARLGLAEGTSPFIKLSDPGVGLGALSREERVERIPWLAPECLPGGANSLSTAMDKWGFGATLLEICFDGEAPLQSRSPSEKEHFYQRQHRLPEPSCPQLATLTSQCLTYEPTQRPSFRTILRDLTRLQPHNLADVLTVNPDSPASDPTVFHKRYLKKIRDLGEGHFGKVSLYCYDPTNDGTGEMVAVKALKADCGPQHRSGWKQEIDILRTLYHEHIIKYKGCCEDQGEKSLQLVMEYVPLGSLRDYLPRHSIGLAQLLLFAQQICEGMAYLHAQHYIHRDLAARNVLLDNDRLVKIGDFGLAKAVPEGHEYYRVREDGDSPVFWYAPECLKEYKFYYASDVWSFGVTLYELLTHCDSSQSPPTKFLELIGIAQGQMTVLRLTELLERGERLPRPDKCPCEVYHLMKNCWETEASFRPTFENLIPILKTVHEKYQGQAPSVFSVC

The compound `CN(C)C(=O)Nc1cc(Oc2cnc3nc(Nc4cc(C(F)(F)F)cn(C)c4=O)n(C)c3c2C#N)ccn1` [Compound 1, 3-(4-((7-cyano-1-methyl-2-((1-methyl-2-oxo-5-(trifluoromethyl)-1,2-dihydropyridin-3-yl)amino)-1H-imidazo[4,5-b]pyridin-6-yl)oxy)pyridin-2-yl)-1,1-dimethylurea] yielded a solubility at 2 h in “Kinetic Solubility Assay” of 9 to 100 µM (≈ 4.75 to 52.7 µg/mL). Further, at TYK2, the “TYK2/JAK2 Kd/Kd ratio” value is “C (Kd/Kd ratio<300 and ≥100)”. Further, the CLint scaled at 1 μM in series [1] is at most 6 mL/min/kg; in series [2] it was 17 to 35 mL/min/kg.
`CCN1CCN(Cc2ccc(Nc3nc4ccc(Oc5ccnc(NC(C)=O)c5)cc4n3C)cc2C(F)(F)F)CC1` [Compound R-1, reference compound]: the solubility at 2 h in “Kinetic Solubility Assay” was 100 to 200 µM (≈ 56.8 to 114 µg/mL). Further, the “TYK2/JAK2 Kd/Kd ratio” value at TYK2 is “C (Kd/Kd ratio<300 and ≥100)”. Besides, the CLint scaled at 1 μM was in the range of 12 to 20 mL/min/kg in series [1] and 35 to 45 mL/min/kg in series [2].
